Laboratory results taken from patent US9573954B2, “Pyrazolopyrimidine compounds” (University Health Network, priority 2012, dated 2017).
Like-named read-outs stand apart in the source and are kept apart here.

Key:
[1] = test system: breast cancer cells (MDA-MB-468); assay: Cancer cell line growth inhibition, Sulforhodamine B assay, MDA-MB-468; assay type: cell-based; settings: read-out: Cancer Cell Line GI50 Range MDA-MB-468
Method: (§1) Breast cancer cells (MDA-MB-231 and MDA-MB-468), colon cancer cells (HCT116) and ovarian cancer cells (PA-1 and OVCAR-3) were seeded (1000 to 4000 in 80 μl per well depending on the cell growth rate) into 96 well plates 24 hours before compound overlay. Compounds were prepared as 10 mM stock solutions in 100% DMSO which were diluted with DMEM (Dulbecco's Modified Eagle's Medium) cell growth Medium (Invitrogen, Burlington, ON, Canada) containing 10% FBS (Fetal Bovine Serum) to concentrations ranging from 50 nM to 250 μM. Aliquots (20 μl) from each concentration were overlaid to 80 μl of the pre-seeded cells in the 96 well plates to make final concentrations of 10 nM to 50 μM. The cells were cultured for 5 days before the Sulforhodamine B assay (SRB) was performed to determine the compound's cell growth inhibition activity.
(§2) Sulforhodamine B (purchased from Sigma, Oakville, ON, Canada) is a water-soluble dye that binds to the basic amino acids of the cellular proteins. Thus, colorimetric measurement of the bound dye provides an estimate of the total protein mass that is related to the cell number. the cells are fixed in situ by gently aspirating off the culture media and adding 50 μl ice cold 10% Trichloroacetic Acid (TCA) per well and incubate at 4° C. for 30-60 min, The plates are washed with H2O five times and allowed to air dry for 5 min. Addition of 50 μl 0.4% (w/v) SRB solution in 1% (v/v) acetic acid to each well and incubation for 30 min at RT completes the staining reaction. Following staining, plates are washed four times with 1% acetic acid to remove unbound dye and then allowed to air dry for 5 min. The stain is solubilized with 100 μl of 10 mM Tris pH 10.5 per well. Absorbance is read at 570 nm.
(§3) The percentage (%) of relative growth inhibition was calculated by comparing to DMSO treated only cells (100%). GI50's were determined for compounds with cytotoxic activity. The GI50 was calculated using GraphPad PRISM software (GraphPad Software, Inc., San Diego, Calif., USA).
(§4) In Table 1 below, GI50 value ranges for compound examples against breast cancer cell lines (MDA-MB-468), colon cancer cell lines (HCT116) and ovarian cancer cell lines (PA-1) are given.
(§5) In Table 3 below, GI50 value ranges for compound examples against breast cancer cell lines (MDA-MB-468), colon cancer cell lines (HCT116) and ovarian cancer cell lines (OVCAR-3) are given.

[2] = test system: colon cancer cells (HCT116); assay: Cancer cell line growth inhibition, Sulforhodamine B assay, HCT116; assay type: cell-based; settings: read-out: Cancer Cell Line GI50 Range HCT116
Method: as §1, §2, §3, §4
In Table 2 below, GI50 value ranges for compound examples against breast cancer cell lines (MDA-MB-231), colon cancer cell lines (HCT116) and ovarian cancer cell lines (PA-1) are given.
as §5

[3] = test system: ovarian cancer cells (OVCAR-3); assay: Cancer cell line growth inhibition, Sulforhodamine B assay, OVCAR-3; assay type: cell-based; settings: read-out: Cancer Cell Line GI50 Range OVCAR-3
Method: as §1, §2, §3, §5

human TTK = molecular target: T1, human TTK (Homo sapiens, UniProt P33981); assay: TTK inhibition assay (indirect ELISA); assay type: biochemical
T1 construct: Active TTK was purchased from Invitrogen as an amino terminal GST fusion of full length human TTK; purchased Invitrogen
T1 sequence (P33981 1-857): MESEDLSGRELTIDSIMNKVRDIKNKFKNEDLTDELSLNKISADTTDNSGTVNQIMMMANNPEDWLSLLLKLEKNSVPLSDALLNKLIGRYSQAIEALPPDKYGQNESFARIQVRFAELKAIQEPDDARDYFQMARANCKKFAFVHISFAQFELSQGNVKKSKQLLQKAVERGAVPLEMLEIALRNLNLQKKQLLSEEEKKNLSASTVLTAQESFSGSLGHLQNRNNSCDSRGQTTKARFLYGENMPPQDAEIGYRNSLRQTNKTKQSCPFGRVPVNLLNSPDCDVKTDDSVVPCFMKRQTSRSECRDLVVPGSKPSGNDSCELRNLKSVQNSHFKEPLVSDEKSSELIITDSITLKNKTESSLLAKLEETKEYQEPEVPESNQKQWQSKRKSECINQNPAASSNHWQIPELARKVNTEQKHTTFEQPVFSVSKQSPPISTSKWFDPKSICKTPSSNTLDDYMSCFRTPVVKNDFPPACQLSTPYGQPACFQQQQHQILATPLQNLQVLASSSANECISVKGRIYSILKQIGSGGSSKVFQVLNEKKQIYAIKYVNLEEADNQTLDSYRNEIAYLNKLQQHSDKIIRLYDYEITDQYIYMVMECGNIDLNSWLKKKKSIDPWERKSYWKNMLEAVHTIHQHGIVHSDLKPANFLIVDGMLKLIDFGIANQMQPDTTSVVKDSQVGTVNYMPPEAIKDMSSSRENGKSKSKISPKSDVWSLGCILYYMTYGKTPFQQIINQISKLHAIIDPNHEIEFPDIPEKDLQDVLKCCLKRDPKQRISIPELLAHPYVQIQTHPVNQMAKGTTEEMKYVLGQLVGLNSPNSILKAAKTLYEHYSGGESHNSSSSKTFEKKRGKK
Method in brief: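 Activity detected by indirect ELISA after compounds sat with full-length GST-TTK for 5 min prior to starting the reaction with ATP. IC50 came from a four-parameter logistic curve of % inhibition, calculated against background and uninhibited control wells.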

[4] = Homo sapiens, MDA-MB-468, MDA-MB-468 breast cancer cell line
[5] = Homo sapiens, HCT-116, HCT116 colon cancer cell line
[6] = Homo sapiens, OVCAR-3, OVCAR-3 ovarian cancer cell line
[7] = 100 μM ATP, read-out: TTK IC50 Range

| Structure (SMILES) | GI50 [1, 4] | GI50 [2, 5] | GI50 [3, 6] | IC50 (human TTK; [7]) | IC50 (human TTK; 16 μM ATP (Sigma cat# A7699), read-out: TTK IC50 Range (denoted with an asterisk)) | GI50 ([1]; MDA-MB-468 breast cancer cell line) | GI50 ([2]; HCT116 colon cancer cell line) | GI50 ([3]; OVCAR-3 ovarian cancer cell line) |
| --- | --- | --- | --- | --- | --- | --- | --- | --- |
| Cc1cc(-c2cnn3c(NCc4cccnc4)cc(NC4CCOCC4)nc23)ccc1C(=O)NC1CC1 [Example C49] | 100 to 500 nM | 100 to 500 nM | 100 to 500 nM | < 100 nM |  |  |  |  |
| O=C(NC1CC1)c1ccc(-c2cnn3c(NCCN4CCOCC4)cc(Oc4ccccc4)nc23)cc1Cl [Example C105] | ≤ 100 nM | ≤ 100 nM | ≤ 100 nM | < 100 nM |  |  |  |  |
| Cc1cc(-c2cnn3c(NCCN4CCOCC4)cc(NC4CCCC4)nc23)ccc1C(=O)NC1CC1 [Example C77] | 100 to 500 nM | 100 to 500 nM | 100 to 500 nM | < 100 nM |  |  |  |  |
| Cc1cc(-c2cnn3c(NCC4CCOCC4)cc(NCC4COC4)nc23)ccc1C(=O)NC1CC1 [Example C71] | 100 to 500 nM | 100 to 500 nM | > 500 nM | < 100 nM |  |  |  |  |
| Cc1cc(-c2cnn3c(NCC4CCOCC4)cc(N[C@@H]4CCOC4)nc23)ccc1C(=O)NC1CC1 [Example C136] | ≤ 100 nM | ≤ 100 nM | 100 to 500 nM | < 100 nM |  |  |  |  |
| Cc1cc(-c2cnn3c(NCc4cccnc4)cc(OC4CCOCC4)nc23)ccc1C(=O)NC1CC1 [Example C52] | 100 to 500 nM | 100 to 500 nM | > 500 nM | < 100 nM |  |  |  |  |
| O=C(NC1CC1)c1ccc(-c2cnn3c(NCC4CCOCC4)nc(Nc4ccccc4)nc23)cc1Cl [Example C9] | > 500 nM | > 500 nM | 100 to 500 nM |  | < 100 nM |  |  |  |
| Cc1cc(-c2cnn3c(NCC4(CO)CCOCC4)cc(NC4CCCC4)nc23)ccc1C(=O)NC1CC1 [Example C92] | > 500 nM | 100 to 500 nM | > 500 nM | < 100 nM |  |  |  |  |
| Cc1cc(-c2cnn3c(NCCN4CCOCC4)cc(Oc4cccc(Cl)c4)nc23)ccc1C(=O)NC1CC1 [Example C97] | 100 to 500 nM | ≤ 100 nM | 100 to 500 nM | < 100 nM |  |  |  |  |
| Cc1cc(-c2cnn3c(NCC4CCOCC4)cc(-c4ccnn4C)nc23)ccc1C(=O)NC1CC1 [Example C151] | 100 to 500 nM | ≤ 100 nM | 100 to 500 nM | < 100 nM |  |  |  |  |
| Cc1cc(-c2cnn3c(NCCN4CCOCC4)cc(Oc4cccc(N(C)C)c4)nc23)ccc1C(=O)NC1CC1 [Example C96] | > 500 nM | > 500 nM | > 500 nM | < 100 nM |  |  |  |  |
| Cc1cc(-c2cnn3c(NCC4CCOCC4)cc(N[C@@H]4CCCOC4)nc23)ccc1C(=O)NC1CC1 [Example C82] | 100 to 500 nM | 100 to 500 nM | 100 to 500 nM | < 100 nM |  |  |  |  |
| Cc1cc(-c2cnn3c(NCC4CCOCC4)cc(N(C)C4CCCC4)nc23)ccc1C(=O)NC1CC1 [Example C58] | 100 to 500 nM | ≤ 100 nM | 100 to 500 nM | < 100 nM |  |  |  |  |
| Cc1cc(-c2cnn3c(NCc4ccncc4)cc(NC4CCOCC4)nc23)ccc1C(=O)NC1CC1 [Example C54] |  |  |  | < 100 nM |  | 100 to 500 nM | 100 to 500 nM | 100 to 500 nM |
| Cc1cc(-c2cnn3c(NCC4(F)CCNCC4)cc(NC4CCCC4)nc23)ccc1C(=O)NC1CC1 [Example C169] | > 500 nM | 100 to 500 nM | > 500 nM | < 100 nM |  |  |  |  |
| Cc1cc(-c2cnn3c(NCC4CCOCC4)cc(N4CCC[C@@H]4CO)nc23)ccc1C(=O)NC1CC1 [Example C164] | 100 to 500 nM | 100 to 500 nM | > 500 nM | < 100 nM |  |  |  |  |
| O=C(NC1CC1)c1ccc(-c2cnn3c(NCCN4CCOCC4)cc(Oc4cccc(F)c4F)nc23)cc1Cl [Example C33, 2-chloro-N-cyclopropyl-4-(5-(2,3-difluorophenoxy)-7-((2-morpholinoethyl)amino)pyrazolo[1,5-a]pyrimidin-3-yl)benzamide] | ≤ 100 nM | ≤ 100 nM | ≤ 100 nM | < 100 nM |  |  |  |  |
| Cc1cc(-c2cnn3c(NCC4CCOCC4)cc(N4CCC[C@H]4CO)nc23)ccc1C(=O)NC1CC1 [Example C161] | 100 to 500 nM | ≤ 100 nM | 100 to 500 nM | < 100 nM |  |  |  |  |
| COCCNc1cc(N[C@H]2CCCC[C@H]2O)nc2c(-c3ccc(C(=O)NC4CC4)c(C)c3)cnn12 [Example C108] | 100 to 500 nM | ≤ 100 nM | ≤ 100 nM | < 100 nM |  |  |  |  |
| Cc1cc(-c2cnn3c(NCC(C)C)cc(N[C@H](CO)C(C)C)nc23)ccc1C(=O)NC1CC1 [Example C158] | 100 to 500 nM | ≤ 100 nM | 100 to 500 nM | < 100 nM |  |  |  |  |
| Cc1cc(-c2cnn3c(NCC4CCOCC4)cc(N4C5CCC4CC(O)C5)nc23)ccc1C(=O)NC1CC1 (centres unmarked) [Example C66] | 100 to 500 nM | 100 to 500 nM | 100 to 500 nM | < 100 nM |  |  |  |  |
| Cc1cc(-c2cnn3c(NCC4CCOCC4)cc(N[C@H](CO)C4CCOCC4)nc23)ccc1C(=O)NC1CC1 [Example C89] | > 500 nM | 100 to 500 nM | > 500 nM | < 100 nM |  |  |  |  |
| Cc1cc(-c2cnn3c(NCC4CC4)cc(NC4CCOCC4)nc23)ccc1C(=O)NC1CC1 [Example C153] | 100 to 500 nM | ≤ 100 nM | 100 to 500 nM | < 100 nM |  |  |  |  |
